Measurements reported in US7989495B2, “Compositions and methods for inhibiting NF-κB mediated tumorigenicity and adhesion dependent survival of cancer cells” (University of Utah Research Foundation, priority 2002, dated 2011).
“Also recorded” adds a separate entry of the source. Peptide text beside a SMILES is read from it. * marks the point of attachment. Cbz = O=C(OCc1ccccc1)*

Tests used:
Format in all cases: cell-based
[1] = test system: adherent HT-29 cells; assay: Apoptosis assay (annexin V-FITC / propidium iodide flow cytometry), adherent cells
Description: The data points represent the average percent of annexin V-positive, propidium iodide-negative cells (of the total cells counted) from triplicate experiments. The error bars represent the standard error of the means. […] The results shown are a graphic representation of individual flow cytometry results expressed as the percentage of cells that were annexin V-positive of those that excluded propidium iodide. […] An immunoblot of the lysates for cleaved PARP was performed. Each lane represents equal total protein concentrations. […] The cells were allowed to adhere to plastic dishes for 1 hour after which they were washed gently in PBS and stained with crystal violet. The crystal violet stained cells were solubilized in deoxycholate and the absorbance detected in a spectrophotometer at 590 nm. The adherent cells were expressed as a fraction of the controls Each data point represents the average of triplicate experiments and the error bars the standard errors of the means.
(§1) Single cell suspensions were plated at 100,000 cells per well in 24-well plates in media containing DMSO, BAY 11-7082, BAY 11-7085, or MG-132 for 8-24 hours in an incubator. Alternatively, DMSO, BAY 11-7082, BAY 11-7085, or MG-132 were added to cells that were confluent and adherent for several days. The nonadherent cells were aspirated off with the media and spun for 3 minutes at 2,000 rpm in 15 ml polypropylene tubes. The adherent cells were washed twice with PBS, dispersed in trypsin, and spun down for 3 minutes at 2,000 rpm in 15 ml polypropylene tubes. The nonadherent and adherent cells were resuspended in 1× binding buffer (10 mM HEPES/NaOH, pH 7.4, 140 mM NaCl, and 2.5 mM CaCl2) to a final concentration of 10^6 cells/ml. 100 μl of the cell solution were transferred to a 5 ml culture tube and incubated with 5 μl of annexin V-FITC-conjugated monoclonal antibody (Pharmingen) and 10 μl of propidium iodide (from a 50 μg/ml stock solution made in PBS) in the dark at 25° C. for 15 minutes. 400 μl of binding buffer was added to each tube and the cells were analyzed by flow cytometry immediately. The percent of apoptosis was determined as the percent of annexin V-positive, propidium iodide-negative cells of the total cells counted.

[2] = test system: transiently suspended HT-29 cells; assay: Apoptosis (annexin V) of transiently suspended cells allowed to readhere; conditions: HT-29; various concentrations; 4 h; compared with BAY 11-7085
Description: HT-29 cells that were either transiently suspended with trypsin-EDTA or adherent for three days, were treated at time zero with DMSO or 10-100 μM BAY 11-7085. The percent of apoptotic cells was determined using the annexin V flow cytometry assay and graphed versus the dose of BAY 11-7085. […] The cells were fixed and immunostained with an NF-κB p65 subunit monoclonal antibody.
The transiently suspended cells were lysed and allowed to bind to DNA oligonucleotides, containing the NF-κB consensus binding site, that were immobilized to 96-well plates. NF-κB protein bound to the oligonucleotides was detected by an antibody to the p65 subunit that only recognized p65 that is bound to DNA. The positive control was HeLa cells that were stimulated with TNFα A control was performed using excess free NF-κB oligonucleotides (Competitor). […] NF-κB binding activity was determined by the TransAM assay as in FIG. 5A. […] The data shown represent typical results of three separate experiments. […] An immunoblot for COX-2 was performed.
The percentage of apoptotic cells was determined using the annexin V assay. The data points represent the averages of three experiments; bars, ±SE. E. DLD-1 and F. HT-29 cells were transduced with an adenovirus containing the IκB super-repressor construct. After 3 days, the cells were transiently suspended and allowed to readhere in the presence of subapoptotic concentrations of BAY 11-7085 or DMSO (vehicle) for 8 h. The data are expressed as fractions of cells surviving compared with the controls (no adenovirus) and were quantitatively determined by staining the remaining adherent cells with crystal violet.
as §1
Various concentrations of BAY 11-7085 were added to HT-29 cells that were transiently suspended in trypsin-PBS for approximately 15 minutes before replating. The transiently suspended cells were quickly allowed to readhere in order to prevent anoikis. Alternatively, BAY 11-7085 was added to adherent HT-29 cell monolayers.

[3] = test system: cleaved PARP in HT-29 cells; assay: Immunoblot for cleaved PARP; conditions: 20 μM, 8 h
Description: The cells were washed twice in ice cold PBS and then lysed in 4° C. lysis buffer (50 mM HEPES, 150 mM NaCl, 1.5 mM MgCl2, 1 mM EGTA, 100 mM NaF, 10 mM Na2PO4, 1 mM Na3VO4, 10% glycerol, 1% Triton X-100, and 1 μg/ml each of aprotinin, leupeptin, chymostatin, pepstatin) and clarified at 12,000 rpm at 4° C. for 15 minutes. The lysates were normalized for total protein concentration. Aliquots of the lysates were then mixed 1:1 in sample buffer (125 mM Tris-HCl (pH 6.8), 20% glycerol. 4% sodium dodecyl sulfate, 2% beta-mercaptoethanol, 10 μg/ml bromophenol blue) and boiled for 3 minutes. The samples were loaded onto SDS-PAGE gels (7.5 or 10% acrylamide). […]
(§2) For immunodetection, the blocked blots were probed with primary antibody for 2 hours at 4° C. on a rocker. […] Alkaline phosphatase was detected by a colorimetric reaction using a BCIP (5-Bromo-4-Chloro-3-Indolyl phosphate)/NBT (Nitroblue tetrazolium) kit (Zymed).
It was confirmed in HT-29 cells that were treated with increasing concentrations of BAY 11-7085 for 24 h. After separating the HT-29 cells that remained adherent and those that became nonadherent after BAY 11-7085 treatment, the percentage of apoptotic cells was determined for each group. […]

[4] = test system: cleaved PARP in HCT-116 cells; assay: Immunoblot for cleaved PARP; conditions: 20 μM, 24 hours
Description: The data points represent the average percent of annexin V-positive, propidium iodide-negative cells (of the total cells counted) from triplicate experiments. The error bars represent the standard error of the means. […] The results shown are a graphic representation of individual flow cytometry results expressed as the percentage of cells that were annexin V-positive of those that excluded propidium iodide. […] An immunoblot of the lysates for cleaved PARP was performed. Each lane represents equal total protein concentrations. […] The cells were allowed to adhere to plastic dishes for 1 hour after which they were washed gently in PBS and stained with crystal violet. The crystal violet stained cells were solubilized in deoxycholate and the absorbance detected in a spectrophotometer at 590 nm. The adherent cells were expressed as a fraction of the controls Each data point represents the average of triplicate experiments and the error bars the standard errors of the means. […]
as §2

[5] = test system: HT-29 colon cancer cell line; assay: Cell proliferation assay (crystal violet, 590 nm); conditions: 10 and 50 μg/ml, after several days of treatment
Description: (§3) DLD-1, HCT-116, and HT-29 colon cancer cell lines were obtained from the ATCC collection and were cultured in Dulbecco's Modification of Eagle's Medium supplemented with 10% fetal bovine serum, glutamine, penicillin, and streptomycin. 293 cells stably transfected with COX-2 (293-COX-2) under the control of a ponasterone sensitive promoter were cultured in Dulbecco's Modification of Eagle's Medium supplemented with 10% fetal bovine serum, 400 μg/ml of zeocin, 400 μg/ml of G418, glutamine, penicillin, and streptomycin. For induction of COX-2 protein expression, 293-COX-2 cells were cultured for 48 hours in media supplemented with 1 μg/ml of ponasterone. All cells were cultured at 37° C. in a humidified incubator with a 5% CO2 atmosphere.
(§4) For the cell proliferation assay, cells were dispersed and plated at 40,000 cells/well in 96-well dishes. At various days in culture, the cells were gently washed twice with 100 μl/well of ice-cold blocking buffer (1% radioimmunoassay grade BSA in PBS) and twice with 100 μl/well of ice-cold PBS. The cells were fixed for 10 min in 100% ice-cold methanol (100 μl/well), then allowed to air-dry. The cells were stained with 100μl/well of 0.1% crystal violet in H2O for 10 minutes, then washed gently four times with dd H20 and four times with PBS. The plates were then air-dried completely. The stained cells were then solubilized in 1% sodium deoxycholate, and the plates read at 590 nm in a spectrophotometer. The absorption at 590 nm is proportional to the number of attached cells.

[6] = test system: HCT-116 colon cancer cell line; assay: Cell proliferation assay (crystal violet, 590 nm); conditions: 10 and 50 μg/ml, after several days of treatment
Description: as §3, §4

[7] = test system: DLD-1 colon cancer cell line; assay: Cell proliferation assay (crystal violet, 590 nm); conditions: 10 and 50 μg/ml, after several days of treatment
Description: as §3, §4

## CC(C)C[C@@H](C=O)NC(=O)[C@H](CC(C)C)NC(=O)[C@H](CC(C)C)NC(=O)OCc1ccccc1 [MG-132, N-[(phenylmethoxy)carbonyl]-L-leucyl-N-[(1S)-1-formyl-3-methylbutyl]-L-leucinamide] (Cbz-Leu-Leu-Leu-aldehyde)
[1]; adherent HT-29, doses up to 20 μM (MG-132 20 μM), 24 hours
  level of apoptosis (annexin V-positive, propidium iodide-negative cells): relatively greater for MG-132 than BAY 11-7085; also recorded: caused a greater increase in apoptosis
[2]
  induction of apoptosis during readhesion: more potently induced apoptosis
[3]
  cleaved PARP in cells that remained adherent: only a small increase in cleaved PARP
  cleaved PARP in the nonadherent cells: large increase in cleaved PARP
[4]
  cleaved PARP in cells that remained adherent: only a small increase in cleaved PARP
  cleaved PARP in the non-adherent cells: large increase in cleaved PARP

## S=C(S)N1CCCC1 [PDTC, pyrrolidine dithiocarbamate]
[2]
  induction of apoptosis during readhesion: caused apoptosis of HT-29 cells during readhesion

## cA2: antagonistic and chimeric TNFα monoclonal antibody purchased from the clinical pharmacy; inhibits TNFα binding to TNFα receptors
[5]
  inhibition of colon cancer cell proliferation: significant inhibition
[6]
  inhibition of colon cancer cell proliferation: significant inhibition
[7]
  inhibition of colon cancer cell proliferation: significant inhibition
[1]; HT-29, 50 μg/ml cA2 for 48 hours, then 20 μM BAY 11-7085 for 24 hours
  effect of cA2 pretreatment on BAY 11-7085-induced apoptosis: did not diminish BAY 11-7085-induced apoptosis
